Literature values as cited in patent US20120136048A1, “TOPICAL, PERIOCULAR, OR INTRAOCULAR USE OF TOCOTRIENOLS FOR THE TREATMENT OF OPHTHALMIC DISEASES” (priority 2009, published 2012).

Details: rat ocular tissues, every tissue to which it was administered

Row | concentration in ocular tissues after topical ophthalmic administration | SMILES
1 | no significant increase | Cc1c(C)c2c(c(C)c1O)CC[C@@](C)(CCC[C@H](C)CCC[C@H](C)CCCC(C)C)O2 [alpha-tocopherol]
2 | increased markedly | CC(C)=CCC/C(C)=C/CC/C(C)=C/CC[C@]1(C)CCc2c(C)c(O)c(C)c(C)c2O1 [alpha-tocotrienol, Alpha-Tocotrienol]
